Test results as given in patent publication US9708331B2, “Metabotrophic glutamate receptor 5 modulators and methods of use thereof” (SUNOVION PHARMACEUTICALS INC., priority 2011, dated 2017).
pEC50: −log10 of the molar value.

How the values were obtained:
mGluR5 [1] = target: T1, mGluR5 (Homo sapiens, UniProt P41594); assay: mGluR5 fold shift at a fixed compound concentration; assay type: cell-based
mGluR5 [2] = target: T1, mGluR5; assay: mGluR5 PAM EC50 (positive allosteric modulator potency); assay type: cell-based

T1 sequence (P41594 21-1212): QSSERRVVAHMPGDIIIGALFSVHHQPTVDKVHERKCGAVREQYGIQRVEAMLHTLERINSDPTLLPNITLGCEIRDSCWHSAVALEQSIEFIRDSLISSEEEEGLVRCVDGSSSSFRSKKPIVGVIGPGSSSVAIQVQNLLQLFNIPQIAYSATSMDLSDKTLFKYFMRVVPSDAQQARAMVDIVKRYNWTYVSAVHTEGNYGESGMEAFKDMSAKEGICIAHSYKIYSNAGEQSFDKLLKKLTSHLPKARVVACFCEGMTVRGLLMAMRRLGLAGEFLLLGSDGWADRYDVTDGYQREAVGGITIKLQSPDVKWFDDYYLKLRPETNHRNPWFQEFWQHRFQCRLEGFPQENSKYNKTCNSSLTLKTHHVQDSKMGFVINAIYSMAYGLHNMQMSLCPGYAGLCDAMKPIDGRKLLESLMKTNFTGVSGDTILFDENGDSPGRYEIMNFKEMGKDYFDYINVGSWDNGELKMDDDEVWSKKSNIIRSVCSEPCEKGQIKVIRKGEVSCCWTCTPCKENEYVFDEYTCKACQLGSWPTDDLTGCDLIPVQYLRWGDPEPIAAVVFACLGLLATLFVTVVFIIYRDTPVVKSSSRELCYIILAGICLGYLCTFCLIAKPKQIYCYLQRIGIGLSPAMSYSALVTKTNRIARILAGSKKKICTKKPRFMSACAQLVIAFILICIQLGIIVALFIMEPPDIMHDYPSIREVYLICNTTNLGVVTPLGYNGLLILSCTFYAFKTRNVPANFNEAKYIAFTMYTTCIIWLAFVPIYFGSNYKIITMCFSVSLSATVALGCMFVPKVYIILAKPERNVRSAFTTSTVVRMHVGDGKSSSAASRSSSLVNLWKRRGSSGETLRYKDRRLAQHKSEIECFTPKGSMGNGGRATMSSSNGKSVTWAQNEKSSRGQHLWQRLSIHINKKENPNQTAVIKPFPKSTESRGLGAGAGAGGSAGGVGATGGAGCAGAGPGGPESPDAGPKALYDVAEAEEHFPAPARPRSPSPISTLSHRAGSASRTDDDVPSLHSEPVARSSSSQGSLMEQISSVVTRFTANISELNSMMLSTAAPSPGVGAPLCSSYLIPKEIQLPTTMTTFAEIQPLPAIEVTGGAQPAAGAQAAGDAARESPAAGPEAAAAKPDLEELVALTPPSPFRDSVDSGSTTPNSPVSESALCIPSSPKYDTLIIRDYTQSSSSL

| Fold shift at 1 μM (mGluR5 [1]) | pEC50 (mGluR5 [2]) | Fold shift at 10 μM (mGluR5 [1]) | SMILES |
| --- | --- | --- | --- |
| +++ (+++>3) | 7.52 to 8.00 |  | CC1(C)COc2nc3cc(C#Cc4ccccn4)ccc3c(=O)n2C1 [Example 2.29, 3,3-dimethyl-9-(pyridin-2-ylethynyl)-3,4-dihydro-[1,3]oxazino[2,3-b]quinazolin-6(2H)-one] |
| ++ (++ is between 2.0 and 2.9) | > 8.00 |  | CC1(C)CCc2nc3cc(C#Cc4ccccc4)ccc3c(=O)n2C1 [Example 2.37, 8,8-dimethyl-3-(phenylethynyl)-8,9-dihydro-6H-pyrido[2,1-b]quinazolin-11(7H)-one] |
| +++ (+++>3) | 7.52 to 8.00 |  | Cc1cccc(C#Cc2ccc3c(=O)n4c(nc3c2)CCC(C)(C)C4)n1 [Example 2.41, 8,8-dimethyl-3-((6-methylpyridin-2-yl)ethynyl)-8,9-dihydro-6H-pyrido[2,1-b]quinazolin-11(7H)-one] |
| +++ (+++>3) | > 8.00 |  | CC1(C)CCc2nc3cc(C#Cc4ccc(Cl)cn4)ccc3c(=O)n2C1 [Example 2.42, 3-((5-chloropyridin-2-yl)ethynyl)-8,8-dimethyl-8,9-dihydro-6H-pyrido[2,1-b]quinazolin-11(7H)-one] |
| ++ (++ is between 2.0 and 2.9) | > 8.00 |  | CC1(C)CCc2nc3cc(C#Cc4ccc(F)cn4)ccc3c(=O)n2C1 [Example 2.43, 3-((5-fluoropyridin-2-yl)ethynyl)-8,8-dimethyl-8,9-dihydro-6H-pyrido[2,1-b]quinazolin-11(7H)-one] |
| +++ (+++>3) | > 8.00 |  | Cc1cccc(C#Cc2ccc3c(=O)n4c(nc3c2)CCC(C)(C)C4)c1 [Example 2.44, 8,8-dimethyl-3-(m-tolylethynyl)-8,9-dihydro-6H-pyrido[2,1-b]quinazolin-11(7H)-one] |
| ++ (++ is between 2.0 and 2.9) | 7.52 to 8.00 |  | CC1(C)CCc2nc3cc(C#Cc4cccc(C#N)c4)ccc3c(=O)n2C1 [Example 2.45, 3-((8,8-dimethyl-11-oxo-7,8,9,11-tetrahydro-6H-pyrido[2,1-b]quinazolin-3-yl)ethynyl)benzonitrile] |
| ++ (++ is between 2.0 and 2.9) | > 8.00 |  | Cc1ncc(C#Cc2ccc3c(=O)n4c(nc3c2)CCC(C)(C)C4)s1 [Example 2.49, 8,8-dimethyl-3-((2-methylthiazol-5-yl)ethynyl)-8,9-dihydro-6H-pyrido[2,1-b]quinazolin-11(7H)-one] |
| +++ (+++>3) | 7.52 to 8.00 |  | O=c1c2ccc(C#Cc3ccccn3)cc2nc2n1CC1(CC2)COC1 [Example 2.58, 3′-(pyridin-2-ylethynyl)-6′,7′-dihydrospiro[oxetane-3,8′-pyrido[2,1-b]quinazolin]-11′(9′H)-one] |
| +++ (+++>3) | > 8.00 |  | O=c1c2ccc(C#Cc3ccccn3)cc2nc2n1CC1(CC2)CC1(F)F (stereo not shown) [Example 2.68, 2,2-difluoro-3′-(pyridin-2-ylethynyl)-6′,7′-dihydrospiro[cyclopropane-1,8′-pyrido[2,1-b]quinazolin]-11′(9′H)-one] |
| +++ (+++>3) | > 8.00 |  | CC12Cn3c(nc4cc(C#Cc5ccccn5)ccc4c3=O)CC1C2(F)F (stereo not shown) [Example 2.69, 1,1-difluoro-10a-methyl-5-(pyridin-2-ylethynyl)-1a,2,10,10a-tetrahydrocyclopropa[4,5]pyrido [2,1-b]quinazolin-8(1H)-one] |
| +++ (+++>3) | > 8.00 |  | CC1(CF)CCc2nc3cc(C#Cc4ccccn4)ccc3c(=O)n2C1 (stereo not shown) [Example 2.96, 8-(fluoromethyl)-8-methyl-3-(pyridin-2-ylethynyl)-8,9-dihydro-6H-pyrido[2,1-b]quinazolin-11(7H)-one] |
| +++ (+++>3) | 7.52 to 8.00 |  | COCC1(C)CCc2nc3cc(C#Cc4ccccn4)ccc3c(=O)n2C1 (stereo not shown) [Example 2.97, 8-(methoxymethyl)-8-methyl-3-(pyridin-2-ylethynyl)-8,9-dihydro-6H-pyrido[2,1-b]quinazolin-11(7H)-one] |
| +++ (+++>3) | > 8.00 |  | CC12Cc3nc4cc(C#Cc5ccccn5)ccc4c(=O)n3CC1C2 (stereo not shown) [Example 2.98, 1a-methyl-5-(pyridin-2-ylethynyl)-1a,2,10,10a-tetrahydrocyclopropa[4,5]pyrido [2,1-b]quinazolin-8(1H)-one] |
|  | 6.52 to 7.00 |  | CC1(C)CCc2nc3cc(-c4nnc(-c5ccccn5)s4)ccc3c(=O)n2C1 [Example 6.38, 8,8-dimethyl-3-(5-(pyridin-2-yl)-1,3,4-thiadiazol-2-yl)-8,9-dihydro-6H-pyrido[2,1-b]quinazolin-11(7H)-one] |
|  | 6.00 to 6.52 |  | CC1(C)CCc2nc3cc(-c4ncc(-c5ccccn5)cn4)ccc3c(=O)n2C1 [Example 6.42, 8,8-dimethyl-3-(5-(pyridin-2-yl)pyrimidin-2-yl)-8,9-dihydro-6H-pyrido[2,1-b]quinazolin-11(7H)-one] |

More lines, now with the values behind:

| SMILES | Fold shift at 1 μM (mGluR5 [1]) | pEC50 (mGluR5 [2]) | Fold shift at 10 μM (mGluR5 [1]) |
| --- | --- | --- | --- |
| O=c1c2ccc(C#Cc3ccccn3)cc2nc2n1CC(C(F)(F)F)C2 (single isomer, unassigned) [Example 1.8a] | +++ (+++>3) | 7.52 to 8.00 |  |
| O=c1c2ccc(C#Cc3ccccn3)cc2nc2n1CC(C(F)(F)F)C2 (single isomer, unassigned) [Example 1.8b] | + (+ is between 1.5 and 1.9) | 7.00 to 7.52 |  |
| CC1CCn2c(nc3cc(C#Cc4ccccn4)ccc3c2=O)C1 (single isomer, unassigned) [Example 2.1b] | ++ (++ is between 2.0 and 2.9) |  |  |
| COC1(C)CCc2nc3cc(C#Cc4ccccn4)ccc3c(=O)n2C1 (single isomer, unassigned) [Example 2.8a] |  | 6.52 to 7.00 | ++ (++ is between 2.0 and 2.9) |
| COC1(C)CCc2nc3cc(C#Cc4ccccn4)ccc3c(=O)n2C1 (single isomer, unassigned) [Example 2.8b] | +++ (+++>3) | 7.00 to 7.52 |  |
| O=c1c2ccc(C#Cc3ccccn3)cc2nc2n1C1CCC2C1 (single isomer, unassigned) [Example 2.9a] | + (+ is between 1.5 and 1.9) | 7.52 to 8.00 |  |
| O=c1c2ccc(C#Cc3ccccn3)cc2nc2n1C1CCC2C1 (single isomer, unassigned) [Example 2.9b] | ++ (++ is between 2.0 and 2.9) |  |  |
| O=c1c2ccc(C#Cc3ccccn3)cc2nc2n1CCC1CC21 (single isomer, unassigned) [Example 2.10a] | ++ (++ is between 2.0 and 2.9) | 7.00 to 7.52 |  |
| CC1(C)CC(F)c2nc3cc(C#Cc4ccccn4)ccc3c(=O)n2C1 (single isomer, unassigned) [Example 2.12a] |  | > 8.00 | +++ (+++>3) |
| CC1(C)CC(F)c2nc3cc(C#Cc4ccccn4)ccc3c(=O)n2C1 (single isomer, unassigned) [Example 2.12b] |  |  | + (+ is between 1.5 and 1.9) |
| COC1(C)CCc2nc3cc(C#Cc4ccccn4)ccc3c(=O)n2CC1 (single isomer, unassigned) [Example 3.4a] |  | 7.00 to 7.52 | +++ (+++>3) |
| COC1(C)CCc2nc3cc(C#Cc4ccccn4)ccc3c(=O)n2CC1 (single isomer, unassigned) [Example 3.4b] |  |  | ++ (++ is between 2.0 and 2.9) |
| CC1(F)CCc2nc3cc(C#Cc4ccccn4)cnc3c(=O)n2CC1 (single isomer, unassigned) [Example 3.10b] | +++ (+++>3) | 7.00 to 7.52 |  |
| COC1CCc2nc3cc(C#Cc4ccccn4)ccc3c(=O)n2CC1 (single isomer, unassigned) [Example 3.11b] | ++ (++ is between 2.0 and 2.9) | 7.52 to 8.00 |  |
| CC1CCc2cc3cc(C#Cc4ccccn4)ccc3c(=O)n2CC1 (single isomer, unassigned) [Example 3.20a] |  | > 8.00 | +++ (+++>3) |
| CC1Cc2nc3cc(C#Cc4ccccn4)ccc3c(=O)n2CCC1(F)F (single isomer, unassigned) [Example 3.30c] |  | 7.52 to 8.00 | +++ (+++>3) |
| CC1Cc2nc3cc(C#Cc4ccccn4)ccc3c(=O)n2CCC1(F)F (single isomer, unassigned) [Example 3.30d] |  |  | + (+ is between 1.5 and 1.9) |
| CC1Cn2c(nc3cc(C#Cc4ccccn4)ccc3c2=O)CCC1(F)F (single isomer, unassigned) [Example 3.30f] |  | 7.52 to 8.00 | ++ (++ is between 2.0 and 2.9) |
| COC(C)(C)C1Cc2nc3cc(C#Cc4ccccn4)ccc3c(=O)n2C1 (stereo not shown) [Example 1.4, 2-(2-methoxypropan-2-yl)-6-(pyridin-2-ylethynyl)-2,3-dihydropyrrolo[2,1-b]quinazolin-9(1H)-one] | +++ (+++>3) | 7.52 to 8.00 |  |
| O=c1c2ccc(C#Cc3ccccn3)cc2nc2n1CC1(CCC1)C2 [Example 1.7, 6′-(pyridin-2-ylethynyl)-1′H-spiro[cyclobutane-1,2′-pyrrolo[2,1-b]quinazolin]-9′(3′H)-one] | +++ (+++>3) | 7.52 to 8.00 |  |
| CCC1(C)Cc2nc3cc(C#Cc4ccccn4)ccc3c(=O)n2C1 (stereo not shown) [Example 1.10, 2-ethyl-2-methyl-6-(pyridin-2-ylethynyl)-2,3-dihydropyrrolo[2,1-b]quinazolin-9(1H)-one] | +++ (+++>3) | 7.52 to 8.00 |  |
| CC1(C)Cc2nc3cc(C#Cc4ccccn4)ccc3c(=O)n2O1 [Example 1.15, 2,2-dimethyl-6-(pyridin-2-ylethynyl)-2H-isoxazolo[3,2-b]quinazolin-9(3H)-one] | + (+ is between 1.5 and 1.9) | 7.00 to 7.52 |  |
| CCC1(C)Cc2nc3cc(C#Cc4ccccn4)cnc3c(=O)n2C1 (stereo not shown) [Example 1.19, 7-ethyl-7-methyl-3-(pyridin-2-ylethynyl)-7,8-dihydropyrido[3,2-d]pyrrolo[1,2-a]pyrimidin-10(6H)-one] | ++ (++ is between 2.0 and 2.9) | 7.00 to 7.52 |  |
| CC1(C)CCc2nc3c(F)c(C#Cc4ccccn4)ccc3c(=O)n2C1 [Example 2.30b, 4-fluoro-8,8-dimethyl-3-(pyridin-2-ylethynyl)-8,9-dihydro-6H-pyrido[2,1-b]quinazolin-11(7H)-one] | +++ (+++>3) | 7.52 to 8.00 |  |
